For the assay, the system named is dusp6 gene expression. As to the kind of experiment: Differential analysis of dusp6 gene expression in oligodendrocyte cultures with Rat Genome U34 DNA arrays. Type of assay: cell-based. The arrangement: key to Change: Increases (I); Decreases (D); undergoes No Change (NC); Marginally Increases (MI); Marginally Decreases (MD); key to Detection: Present (P); Absent (A); Marginal (M). To be noted: for SLR (vs control): Signal Log Ratio (log2); for Signal (dusp6, probe set U42627_at): arrays scaled to total intensity 100; for Change: vs control. The source says: Microarrays. The microarrays GeneChip Test 3 (Affymetrix, Santa Clara) were used which allow testing the quality of the RNA prior to the expression analysis with GeneChip Rat Genome U34 set (Affymetrix, Santa Clara), representing 3322 complete gene sequences. The dusp6 gene is represented in the microarray by probe set U42627_at of Affymetrix, which are sense oligonucleotides of 25 nucleotides in length designed on the basis of GeneBank U42627 sequence (Table 1).
Samples. The samples studied corresponded to primary oligodendrocyte cultures obtained from the optic nerve of 12-day old rats. To prevent inter-individual variations, each culture corresponded to a 10-animal cell pool. Treatments were made in duplicate with 10 μM AMPA (α-amino-3-hydroxy-5-methyl-4-isoxazolepropionic acid) or 3 μM kainate. The duration of treatments was 2, 10 and 15 minutes, the cells being collected immediately after treatment in the first two cases and 1 hour after the 15-minute treatment. Treatment for 10 and 15 minutes with AMPA and with kainate causes apoptosis, whereas 2-minute treatment was considered sublethal due to scarce treatment duration. After treatments, the cells were collected in TRIzol® Reagent (Life Technologies) and were stored at −80° C. until total RNA extraction.
The analysis was carried out with total RNA from oligodendrocyte cultures. Each sample corresponded to the mixture of total RNAs from two cultures and were called the following: control: untreated cultured oligodendrocytes ampa 2: oligodendrocytes treated for 2 minutes with 10 μM AMPA and collected after treatment ampa 10: oligodendrocytes treated for 10 minutes with 10 μM AMPA collected after treatment ampa 15: oligodendrocytes treated for 15 minutes with 10 μM AMPA and collected 60 minutes later Kainate 2: oligodendrocytes treated for 2 minutes with 3 μM kainate and collected after treatment Kainate 10: oligodendrocytes treated for 10 minutes with 3 μM kainate and collected after treatment Kainate 15: oligodendrocytes treated for 15 minutes with 3 μM kainate and collected 60 minutes later The total RNA of each one of the cultures was obtained by homogenizing the cells in TRIzol® Reagent (Life Technologies) following the supplier's recommendations. The resulting total RNA was cleaned with the RNeasy Mini kit (QIAGEN) (Chomczynski P. et al., Anal. Biochem., 1987, 162: 156; Chomczynski P., Biotechniques, 1993, 15: 532). 2 μg from each total RNA preparation were used as starting material for the synthesis of biotinylated cRNA with the MessageAmp™ aRNA kit (Ambion).
15 μg of each biotinylated cRNA were fragmented at 94° C. for 35 minutes in a buffer solution containing 40 mM Tris-Acetate (pH 8.1), 100 mM KOAc and 30 mM MgOAc. The fragmented cRNA was mixed with hybridization buffer (10 mM MES, 1M NaCl, 20 mM EDTA, 0.01% Tween 20) and was heated at 99° C. for 5 minutes and subsequently at 45° C. for 5 minutes, to then be loaded into the Affymetrix array. The first array in which hybridization was carried out was Affymetrix Test 3. This array allows testing the quality of the RNA prior to expression analysis in the Affymetrix® GeneChip® Rat Genome U34 set (RG-U34).
For hybridization, the arrays were incubated in a rotary oven at 45° C. for 16 hours and with a constant rotation of 60 rpm.
Washing and staining of each array was carried out in the Affymetrix® Fluidics Station. A washing and staining program was used which included:
The arrays were scanned at 560 nm using a confocal microscope using laser emission (Agilent GeneArray Scanner). Analysis of the intensity readings was carried out with Microarray Suite 5.0 software. To compare the arrays, the latter were scaled to a total intensity of 100.
Differential analysis of the dusp6 gene expression in the oligodendrocytes stimulated with regard to the control was carried out from the array comparison data obtained using the Affymetrix software. […]

The mark [1] stands for this setting: treated 2 minutes (10 μM AMPA or 3 μM kainate), collected after treatment.
Where [2] appears, read: treated 10 minutes (10 μM AMPA or 3 μM kainate), collected after treatment.
[3] abbreviates: treated 15 minutes (10 μM AMPA or 3 μM kainate), collected 60 minutes later.

Regarding `Cc1onc(O)c1CC(N)C(=O)O` (stereo not drawn) [AMPA, α-amino-3-hydroxy-5-methyl-4-isoxazolepropionic acid], under setting [1], the “SLR (vs control)” value worked out at 0.8; the Detection result is on record as “P”; the “Signal (dusp6, probe set U42627_at)” value is given as 75.3; the Change result was “I”. For the same compound, under setting [2], the “SLR (vs control)” value came to 1.2; the Detection result is “P”; the “Signal (dusp6, probe set U42627_at)” value was 101.7; the Change entry is “I”. Under setting [3], the “SLR (vs control)” value is recorded as 2.1; the Detection result is recorded as “P”; the “Signal (dusp6, probe set U42627_at)” value is reported as 149.7; the Change result is “I”. Besides, the “Ratio (=2^SLR)” value (fold change vs untreated control, treated 2 minutes (10 μM AMPA or 3 μM kainate), collected after treatment) worked out at 1.7 fold.
